This note sets out measurements from patent US9695200B2, “Heterocyclic ITK inhibitors for treating inflammation and cancer” (Confluence Life Sciences, Inc., priority 2015, dated 2017).

Bounds are passed on as bounds.

The test deals with phospho-PLCγ1 in Jurkat cells. Description: ITK target modulation PLC-γ assay (phospho-PLCγ1, αCD3-stimulated Jurkat cells). It is filed as cell-based, human. Particulars: Homo sapiens, 1 hour compound incubation, αCD3 Dynabeads stimulation 8 minutes, MSD phospho-PLCγ1, read-out: PLC-γ Inhibition IC50. As for the experimental part:
Jurkat cells, an immortalized human T-lymphocyte cell line, were maintained in RPMI media, 10% FBS, 1% pen/strep/glutamine (growth media). Cells were plated in growth media plus 50 μM β-mercaptoethanol at 400,000 cells per well of a 96 well plate.
Compounds were serially diluted into DMSO, and then into media to concentrations 10× that of the final assay concentration. Compounds were then added to the cells with the final assay DMSO concentration being 0.1%. Cells were incubated for 1 hour at 37° C.
Following compound incubation, αCD3 Dynabeads were added at 1 bead/cell to each assay well and incubated at 37° C. for 7 minutes. Unstimulated control wells received media only. The plate was then placed on a 96-well magnetic plate for an additional 60 seconds (total assay stimulation time equals 8 minutes). The plate was then dumped and gently patted dry on a paper towel. 50 μl of complete Meso Scale Discovery (MSD) Lysis buffer was then added to each well. Samples were assayed for phospho-PLCγ1 using Meso Scale Discovery technology.
The assay stimulation time has been optimized for detection of Itk kinase-mediated phosphorylation of PLCγ1. The timing and detection reagents for this assay could be adjusted to capture phosphorylation events upstream (e.g., phospho-ZAP70) or downstream of the Itk/PLCγ1 node, provided the appropriate phospho-specific antibodies are available for building of an MSD assay.
`C=CC(=O)Nc1cccc(-c2cnc3[nH]cc(-c4ccc(=O)n(CC(C)(C)O)c4)c3c2)c1` [Example 66, N-(3-(3-(1-(2-hydroxy-2-methylpropyl)-6-oxo-1,6-dihydropyridin-3-yl)-1H-pyrrolo[2,3-b]pyridin-5-yl)phenyl)acryl-amide]: the IC50 fell in the range of 1 to 5 µM.
Next, `C=CC(=O)Nc1cccc(-c2cnc3[nH]cc(-c4cncc5[nH]ccc45)c3c2)c1` [Example 77, N-(3-(3-(1H-pyrrolo[2,3-c]pyridin-4-yl)-1H-pyrrolo[2,3-b]pyridin-5-yl)phenyl)acryl-amide]: more than 5 µM; `C=CC(=O)Nc1cccc(-c2cnc3[nH]cc(-c4cn(CC5CC5)c(=O)c5[nH]ccc45)c3c2)c1` [Example 88, N-(3-(3-(6-(cyclopropyl-methyl)-7-oxo-6,7-dihydro-1H-pyrrolo[2,3-c]pyridin-4-yl)-1H-pyrrolo[2,3-b]pyridin-5-yl)phenyl)acryl-amide]: 1 to 5 µM; `C=CC(=O)Nc1cccc(-c2cnc3[nH]cc(-c4ccnc(C)c4)c3c2)c1` [Example 26, N-(3-(3-(2-methylpyridin-4-yl)-1H-pyrrolo[2,3-b]pyridin-5-yl)phenyl)acryl-amide]: less than 1 µM.
For the compound `C=CC(=O)Nc1cccc(-c2cnc3[nH]cc(-c4cccc5occc45)c3c2)c1` [Example 82, N-(3-(3-(benzofuran-4-yl)-1H-pyrrolo[2,3-b]pyridin-5-yl)phenyl)acryl-amide], the half-maximal inhibitory concentration (IC50) is more than 5 µM.
Next, `C=CC(=O)Nc1cccc(-c2cnc3[nH]cc(-c4cccc5cnccc45)c3c2)c1` [Example 55, N-(3-(3-(isoquinolin-5-yl)-1H-pyrrolo[2,3-b]pyridin-5-yl)phenyl)acryl-amide]: more than 5 µM.
With `C=CC(=O)Nc1cccc(-c2cnc3[nH]cc(-c4cccc5[nH]ccc45)c3c2)c1` [Example 71, N-(3-(3-(1H-indol-4-yl)-1H-pyrrolo[2,3-b]pyridin-5-yl)phenyl)acryl-amide] the figure was 1 to 5 µM.
`C=CC(=O)Nc1cccc(-c2cnc3[nH]cc(-c4cc(C)cc(OC)n4)c3c2)c1` [Example 52, N-(3-(3-(6-methoxy-4-methylpyridin-2-yl)-1H-pyrrolo[2,3-b]pyridin-5-yl)phenyl)acryl-amide]: the IC50 was more than 5 µM.
Next, `C=CC(=O)Nc1cccc(-c2cnc3[nH]cc(-c4cccc5ccccc45)c3c2)c1` [Example 53, N-(3-(3-(naphthalen-1-yl)-1H-pyrrolo[2,3-b]pyridin-5-yl)phenyl)acryl-amide]: more than 5 µM; `C=CC(=O)Nc1cc(-c2cnc3[nH]cc(-c4ccncc4)c3c2)cc(C(F)(F)F)c1` [Example 20, N-(3-(3-(pyridin-4-yl)-1H-pyrrolo[2,3-b]pyridin-5-yl)-5-(trifluoromethyl)phenyl)acryl-amide]: less than 1 µM.
As to `C=CC(=O)Nc1cccc(-c2cnc3[nH]cc(-c4ccccc4C)c3c2)c1` [Example 42, N-(3-(3-(o-tolyl)-1H-pyrrolo[2,3-b]pyridin-5-yl)phenyl)acryl-amide], the IC50 was in the range of 1 to 5 µM.
With `N#C/C(=C\c1cccc(-c2cnc3[nH]cc(-c4ccncn4)c3c2)c1)C(N)=O` [Example 75, (E)-2-cyano-3-(3-(3-(pyrimidin-4-yl)-1H-pyrrolo[2,3-b]pyridin-5-yl)phenyl)acryl-amide], the IC50 was more than 5 µM.
Next, `C=CC(=O)Nc1cccc(-c2cnc3[nH]cc(-c4cc(OC)ncc4C)c3c2)c1` [Example 79, N-(3-(3-(2-methoxy-5-methylpyridin-4-yl)-1H-pyrrolo[2,3-b]pyridin-5-yl)phenyl)acryl-amide]: more than 5 µM.
Regarding `C=CC(=O)Nc1cccc(-c2cnc3[nH]cc(-c4cccc(C#N)c4)c3c2)c1` [Example 92, N-(3-(3-(3-cyanophenyl)-1H-pyrrolo[2,3-b]pyridin-5-yl)phenyl)acryl-amide], the IC50 lay in the range of 1 to 5 µM.
Next, `C=CC(=O)Nc1cccc(-c2cnc3[nH]cc(-c4cncc(Cl)c4)c3c2)c1` [Example 43, N-(3-(3-(5-chloropyridin-3-yl)-1H-pyrrolo[2,3-b]pyridin-5-yl)phenyl)acryl-amide]: 1 to 5 µM; `C=CC(=O)Nc1cc(-c2cnc3[nH]cc(-c4ccnc(OC)c4)c3c2)cc(C(O)(CC)CC)c1` [Example 83, N-(3-(3-hydroxypentan-3-yl)-5-(3-(2-methoxypyridin-4-yl)-1H-pyrrolo[2,3-b]pyridin-5-yl)phenyl)acryl-amide]: 1 to 5 µM; `C=CC(=O)Nc1cccc(-c2cnc3[nH]cc(-c4ccc(F)nc4)c3c2)c1` [Example 46, N-(3-(3-(6-fluoropyridin-3-yl)-1H-pyrrolo[2,3-b]pyridin-5-yl)phenyl)acryl-amide]: less than 1 µM.
With `C=CC(=O)Nc1cccc(-c2cnc3[nH]cc(-c4cc(C)ncn4)c3c2)c1` [Example 44, N-(3-(3-(6-methylpyrimidin-4-yl)-1H-pyrrolo[2,3-b]pyridin-5-yl)phenyl)acryl-amide] the figure was 1 to 5 µM.
Consider `C=CC(=O)Nc1cccc(-c2cnc3[nH]cc(-c4ccnc(F)c4)c3c2)c1` [Example 25, N-(3-(3-(2-fluoropyridin-4-yl)-1H-pyrrolo[2,3-b]pyridin-5-yl)phenyl)acryl-amide], for which the IC50 is less than 1 µM.
With `C=CC(=O)Nc1cccc(-c2cnc3[nH]cc(-c4cc(C)nc(OC)c4)c3c2)c1` [Example 29, N-(3-(3-(2-methoxy-6-methylpyridin-4-yl)-1H-pyrrolo[2,3-b]pyridin-5-yl)phenyl)acryl-amide] the figure was 1 to 5 µM; with `C=CC(=O)Nc1cncc(-c2cnc3[nH]cc(-c4cn(C)c(=O)c5[nH]ccc45)c3c2)c1` [Example 73, N-(5-(3-(6-methyl-7-oxo-6,7-dihydro-1H-pyrrolo[2,3-c]pyridin-4-yl)-1H-pyrrolo[2,3-b]pyridin-5-yl)pyridin-3-yl)acrylamide], more than 5 µM; with `COc1cc(/C=C(\C#N)C(N)=O)cc(-c2cnc3[nH]cc(-c4ccnc(OC)c4)c3c2)c1` [Example 60, (E)-2-cyano-3-(3-methoxy-5-(3-(2-methoxypyridin-4-yl)-1H-pyrrolo[2,3-b]pyridin-5-yl)phenyl)acryl-amide], more than 5 µM.
With `C=C(C)C(=O)Nc1cc(-c2cnc3[nH]cc(-c4ccnc(OC)c4)c3c2)cc(-c2cnn(C)c2)n1` [Example 70, N-(4-(3-(2-methoxypyridin-4-yl)-1H-pyrrolo[2,3-b]pyridin-5-yl)-6-(1-methyl-1H-pyrazol-4-yl)pyridin-2-yl)methacryl-amide] the figure was more than 5 µM; with `Cc1cc(-c2c[nH]c3ncc(-c4cccc(/C=C(\C#N)C(N)=O)c4)cc23)ccn1` [Example 33, (E)-2-cyano-3-(3-(3-(2-methylpyridin-4-yl)-1H-pyrrolo[2,3-b]pyridin-5-yl)phenyl)acryl-amide], 1 to 5 µM.
With `C=CC(=O)NC1CN(c2cnc3[nH]cc(-c4ccnc(C#N)c4)c3c2)C1` [Example 5, N-(1-(3-(2-Cyanopyridin-4-yl)-1H-pyrrolo[2,3-b]pyridin-5-yl)azetidin-3-yl)acrylamide] the figure was more than 5 µM; with `C=CC(=O)Nc1cccc(-c2cnc3[nH]cc(-c4ccc(OC)nc4)c3c2)c1` [Example 30, N-(3-(3-(6-methoxypyridin-3-yl)-1H-pyrrolo[2,3-b]pyridin-5-yl)phenyl)acryl-amide], 1 to 5 µM.
Regarding `C=CC(=O)Nc1cc(-c2cnc3[nH]cc(-c4ccc(OC)nc4)c3c2)cc(C(F)(F)F)c1` [Example 58, N-(3-(3-(6-methoxypyridin-3-yl)-1H-pyrrolo[2,3-b]pyridin-5-yl)-5-(trifluoromethyl)phenyl)acryl-amide], the IC50 lay within 1 to 5 µM.
With `C=CC(=O)Nc1cccc(-c2cnc3[nH]cc(-c4ccc(NC)nc4)c3c2)c1` [Example 48, N-(3-(3-(6-(methylamino)pyridin-3-yl)-1H-pyrrolo[2,3-b]pyridin-5-yl)phenyl)acryl-amide] the figure was 1 to 5 µM; with `N#C/C(=C\c1cccc(-c2cnc3[nH]cc(-c4ccc(F)nc4)c3c2)c1)C(N)=O` [Example 63, (E)-2-cyano-3-(3-(3-(6-fluoropyridin-3-yl)-1H-pyrrolo[2,3-b]pyridin-5-yl)phenyl)acryl-amide], more than 5 µM; with `C=CC(=O)Nc1cc(C#N)cc(-c2cnc3[nH]cc(-c4ccncc4)c3c2)c1` [Example 19, N-(3-cyano-5-(3-(pyridin-4-yl)-1H-pyrrolo[2,3-b]pyridin-5-yl)phenyl)acryl-amide], more than 5 µM.
Consider `C=CC(=O)Nc1cccc(-c2cnc3[nH]cc(-c4ccnc5ccccc45)c3c2)c1` [Example 64, N-(3-(3-(quinolin-4-yl)-1H-pyrrolo[2,3-b]pyridin-5-yl)phenyl)acryl-amide], for which the IC50 was 1 to 5 µM.
Next, `C=CC(=O)Nc1cccc(-c2cnc3[nH]cc(-c4ccncn4)c3c2)c1` [Example 49, N-(3-(3-(pyrimidin-4-yl)-1H-pyrrolo[2,3-b]pyridin-5-yl)phenyl)acryl-amide]: less than 1 µM.
Consider `C=CC(=O)Nc1cccc(-c2cnc3[nH]cc(-c4cccc(OC)c4)c3c2)c1` [Example 51, N-(3-(3-(3-methoxyphenyl)-1H-pyrrolo[2,3-b]pyridin-5-yl)phenyl)acryl-amide], for which the IC50 was 1 to 5 µM.
`C=CC(=O)Nc1cccc(-c2cnc3[nH]cc(-c4cccnc4)c3c2)c1` [Example 12, N-(3-(3-(pyridin-3-yl)-1H-pyrrolo[2,3-b]pyridin-5-yl)phenyl)acryl-amide]: the IC50 lay within 1 to 5 µM.

What is called IC50 is the concentration that gives 50% inhibition.
